Molecules are shown by their SMILES.

The assay has as its target T1, microsomal triglyceride transfer protein (MTP) (Mesocricetus auratus, UniProt P55158).
T1 construct: The supernatant comprising the soluble MTP is dialysed against Tris/HCl 150 mM; from tissue; host or cells: golden hamster liver microsomes, deoxycholate-solubilised supernatant, dialysed
T1 sequence (P55158 19-895): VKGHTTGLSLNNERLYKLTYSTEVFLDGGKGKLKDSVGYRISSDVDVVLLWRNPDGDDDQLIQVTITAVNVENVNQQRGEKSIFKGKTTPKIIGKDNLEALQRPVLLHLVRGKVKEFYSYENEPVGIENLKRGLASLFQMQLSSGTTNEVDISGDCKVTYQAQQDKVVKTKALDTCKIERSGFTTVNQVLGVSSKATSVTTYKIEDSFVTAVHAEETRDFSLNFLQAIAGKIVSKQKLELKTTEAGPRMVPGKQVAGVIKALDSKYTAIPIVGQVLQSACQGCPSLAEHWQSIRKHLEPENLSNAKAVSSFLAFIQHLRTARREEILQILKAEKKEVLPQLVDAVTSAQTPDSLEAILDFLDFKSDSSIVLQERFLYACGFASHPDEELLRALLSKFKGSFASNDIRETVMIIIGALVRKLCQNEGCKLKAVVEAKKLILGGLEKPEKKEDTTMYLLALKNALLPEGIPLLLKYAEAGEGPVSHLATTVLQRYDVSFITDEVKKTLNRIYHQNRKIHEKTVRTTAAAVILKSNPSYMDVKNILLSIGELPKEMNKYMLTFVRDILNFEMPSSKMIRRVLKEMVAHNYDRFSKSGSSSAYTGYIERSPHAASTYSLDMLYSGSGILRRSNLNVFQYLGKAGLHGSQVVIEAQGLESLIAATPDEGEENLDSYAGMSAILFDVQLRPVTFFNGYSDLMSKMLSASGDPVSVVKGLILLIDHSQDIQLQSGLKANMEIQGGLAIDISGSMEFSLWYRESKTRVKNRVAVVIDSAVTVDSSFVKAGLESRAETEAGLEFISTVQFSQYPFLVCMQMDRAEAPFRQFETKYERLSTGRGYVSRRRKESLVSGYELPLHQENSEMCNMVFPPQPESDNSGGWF
Nature of the assay: Inhibition of MTP activity: transfer of [3H]-triolein from donor liposomes to biotinylated LDL, SPA. It counts as biochemical. The settings on record: MTP from golden hamster liver; incubation 18-24 hours at 37° C.; read-out: IC50, concentration that allows a 50% inhibition of MTP. The method, then:
Analysis of the Inhibition of MTP Activity
The inhibition of the activity of microsomal triglyceride transfer protein (MTP) was tested by using the following operating protocol.
The inhibition of MTP activity with a compound can be quantified by observing the inhibition of the transfer of a labelled triglyceride, from a donor particle to an acceptor particle, in the presence of MTP. The procedure for the preparation of MTP is based on the method by Wetterau and Zilversmit (Biochem. Biophys. Acta (1986) 875, 610). A few grams of golden hamster liver are taken and then rinsed several times in a 250 mM sucrose solution at 0° C. All the following steps proceed at +4° C. A homogenate at a concentration of 50% in 250 mM sucrose is prepared using a Teflon mill and then centrifuged for 10 minutes at 10 000×g at +4° C. The supernatant is then centrifuged at 105 000×g for 75 minutes at +4° C. The supernatant is discarded and the microsomal pellet is taken up in 3 ml (per g of starting liver) of Tris/HCl 150 mM pH 8.0. 1-ml aliquot fractions are stored at −80° C. until the time of use.
After thawing a fraction of microsomes (1 ml), 12 ml of refrigerated Tris/HCl 50 mM, KCl 50 mM, MgCl2 5 mM pH 7.4 buffers and 1.2 ml of deoxycholate (0.54% in water) are added. After incubation for 30 minutes at +4° C. with gentle agitation, the suspension is centrifuged at 105 000×g for 75 minutes. The supernatant comprising the soluble MTP is dialysed against Tris/HCl 150 mM, NaCl 40 mM, EDTA 1 mM, 0.02% sodium azide pH 7.4 buffer (5 times one litre over 2-3 days). The MTP is stored at +4° C., is stable for at least 30 days and is used in unmodified form in the test.
The donor particles (liposomes) are prepared from 208 μl of L-phosphatidylcholine at a concentration of 10 mg/ml in chloroform, and 480 μl of [3H]-triolein at a concentration of 0.5 mCi/ml in toluene. After stirring, the solution is evaporated under nitrogen, taken up in 6 ml of Tris/HCl 50 mM, KCl 50 mM, MgCl2 5 mM pH 7.4 buffer and incubated in an ultrasound bath for 30 minutes at room temperature. The liposomes are stored at +4° C. and sonicated again for 10 minutes before each use.
The acceptor particles are biotinylated low density lipoproteins (LDL-biot). These particles are supplied by the company Amersham.
The reaction mixture is prepared in untreated ½ well white plates (Corning Costar) by addition, in the following order, of: 5 μl of HEPES 50 mM, NaCl 150 mM, BSA 0.1% (w/v), 0.05% sodium azide (w/v), pH 7.4 buffer; 5 μl of liposome; 5 μl of LDL-biot; 5 μl of test products in DMSO; 5 μl of MTP. After incubation for 18-24 hours at 37° C., the reaction is stopped by adding 100 μl of Amersham SPA (Scintillation Proximity Assay) beads coupled to streptavidin, and the radioactivity is counted using a Top Count (Packard) machine at least one hour later. The inhibition of the transfer of the triglycerides with a compound is reflected by a reduction in the transferred radioactivity.
The results are expressed in terms of the IC50, i.e. the concentration that allows a 50% inhibition of MTP.
As to `COC(=O)c1cccc(NC(=O)N2CCC(Oc3cccc(NC(=O)c4cccc(C)c4-c4ccc(OC(F)(F)F)cc4)c3)CC2)c1` [Example 43, methyl 3-[[[4-[3-[[[6-methyl-4′-(trif1uoro-methoxy)[1,1′-biphenyl]-2-yl]carbonyl]-amino]phenoxy]-1-piperidinyl]carbonyl]-amino]benzoate], the IC50 came to 201 nM.

For `CCOC(=O)CCCCCNC(=O)N1CCC(Oc2cccc(NC(=O)c3cccc(C)c3-c3ccc(OC(F)(F)F)cc3)c2)CC1` [Example 45, ethyl 6-[[[4-[3-[[[6-methyl-4′-(trifluorometh-oxy)[1,1′-biphenyl]-2-yl]carbonyl]amino]-phenoxy]-1-piperidinyl]carbonyl]amino]-hexanoate], the IC50 stood at 779 nM. Under `Cc1cccc(C(=O)Nc2cccc(OC3CCN(C(=O)NC(C)C)CC3)c2)c1-c1ccc(OC(F)(F)F)cc1` [Example 30, N-(1-methylethyl)-4-[3-[[[6-methyl-4′-(trifluoromethoxy)[1,1′-biphenyl]-2-yl]-carbonyl]amino]phenoxy]-1-piperidine-carboxamide] stands 369 nM; under `CC(=O)N1CCC(Oc2cccc(NC(=O)c3cccc(C)c3-c3ccc(OC(F)(F)F)cc3)c2)CC1` [Example 4, N-[3-[(1-acetyl-4-piperidinyl)oxy]phenyl]-6-methyl-4′-(trifluoromethoxy)[1,1′-biphenyl]-2-carboxamide], 344 nM. Regarding `Cc1cccc(C(=O)Nc2cccc(OC3CCN(C(=O)NCc4ccccc4)CC3)c2)c1-c1ccc(OC(F)(F)F)cc1` [Example 35, 4-[3-[[[6-methyl-4′-(trifluoromethoxy)[1,1′-biphenyl]-2-yl]carbonyl]amino]phenoxy]-N-(phenylmethyl)-1-piperidinecarbox-amide], the IC50 turned out to be 120 nM. With `Cc1cccc(C(=O)Nc2cccc(OC3CCN(C(=O)c4cccnc4)CC3)c2)c1-c1ccc(OC(F)(F)F)cc1` [Example 106, 6-methyl-N-[3-[[1-(3-pyridinylcarbonyl)-4-piperidinyl]oxy]phenyl]-4′-(trifluorometh-oxy)[1,1′-biphenyl]-2-carboxamide] the figure was 182 nM; with `O=C(Nc1cccc(OC2CCN(C(=O)c3ccno3)CC2)c1)c1ccccc1-c1ccc(OC(F)(F)F)cc1` [Example 115, N-[3-[[1-(5-isoxazolylcarbonyl)-4-piperi-dinyl]oxy]phenyl]-4′-(trifluoromethoxy)-[1,1′-biphenyl]-2-carboxamide], 433 nM; with `Cc1cccc(C(=O)Nc2cccc(OC3CCN(C(=O)c4ccccc4)CC3)c2)c1-c1ccc(OC(F)(F)F)cc1` [Example 143, N-[3-[(1-benzoyl-4-piperidinyl)oxy]phenyl]-6-methyl-4′-(trifluoromethoxy)[1,1′-biphenyl]-2-carboxamide], 118 nM. Under `Cc1cccc(C(=O)Nc2cccc(OC3CCN(C(=O)OC(C)(C)C)CC3)c2)c1-c1ccc(OC(F)(F)F)cc1` [Example 1, 1,1-dimethylethyl 4-[3-[[[6-methyl-4′-(trifluoromethoxy)[1,1′-biphenyl]-2-yl]carbonyl]amino]phenoxy]-1-piperidine-carboxylate] stands 421 nM; under `CCCCNC(=O)N1CCC(Oc2cccc(NC(=O)c3cccc(C)c3-c3ccc(OC(F)(F)F)cc3)c2)CC1` [Example 33, N-butyl-4-[3-[[[6-methyl-4′-(trifluorometh-oxy)[1,1′-biphenyl]-2-yl]carbonyl]amino]-phenoxy]-1-piperidinecarboxamide], 114 nM.

Consider `Cc1cccc(C(=O)Nc2cccc(OC3CCN(C(=O)c4ccco4)CC3)c2)c1-c1ccc(OC(F)(F)F)cc1` [Example 111, N-[3-[[1-(2-furanylcarbonyl)-4-piperidinyl]-oxy]phenyl]-6-methyl-4′-(trifluorometh-oxy)[1,1′-biphenyl]-2-carboxamide], for which the IC50 was found to be 409 nM. On to `Cc1cccc(C(=O)Nc2cccc(OC3CCN(C(=O)Nc4ccccc4OC(F)(F)F)CC3)c2)c1-c1ccc(OC(F)(F)F)cc1` [Example 47, 4-[3-[[[6-methyl-4′-(trifluoromethoxy)[1,1′-biphenyl]-2-yl]carbonyl]amino]phenoxy]-N-(2-(trifluoromethoxy)phenyl]-1-piperi-dinecarboxamide], for which the IC50 turned out to be 158 nM. Regarding `Cc1ccc(C(=O)N2CCC(Oc3cccc(NC(=O)c4cccc(C)c4-c4ccc(OC(F)(F)F)cc4)c3)CC2)cc1` [Example 116, 6-methyl-N-[3-[[1-(4-methylbenzoyl)-4-piperidinyl]oxy]phenyl]-4′-(trifluorometh-oxy)[1,1′-biphenyl]-2-carboxamide], the IC50 came out at 49.4 nM. Turning to `C/C=C/C(=O)N1CCC(Oc2cccc(NC(=O)c3ccccc3-c3ccc(OC(F)(F)F)cc3)c2)CC1` [Example 137, N-[3-[[1-[(2E)-1-oxo-2-butenyl]-4-piperi-dinyl]oxy]phenyl]-4′-(trifluoromethoxy)-[1,1′-biphenyl]-2-carboxamide], the IC50 is 209 nM. On to `Cc1cccc(C(=O)Nc2cccc(OC3CCN(C(=O)c4cccs4)CC3)c2)c1-c1ccc(OC(F)(F)F)cc1` [Example 99, 6-methyl-N-[3-[[1-(2-thienylcarbonyl)-4-piperidinyl]oxy]phenyl]-4′-(trifluorometh-oxy)[1,1′-biphenyl]-2-carboxamide], for which the IC50 turned out to be 416 nM.

Consider `Cc1cccc(C(=O)Nc2cccc(OC3CCN(S(=O)(=O)c4cccnc4Cl)CC3)c2)c1-c1ccc(OC(F)(F)F)cc1` [Example 19, N-[3-[[1-[(2-chloro-3-pyridinyl)sulfonyl]-4-piperidinyl]oxy]phenyl]-6-methyl-4′-(trifluoromethoxy)[1,1′-biphenyl]-2-carboxamide], for which the IC50 was 290 nM. In the case of `O=C(Nc1cccc(OC2CCN(C(=O)c3ccccc3)CC2)c1)c1ccccc1-c1ccc(OC(F)(F)F)cc1` [Example 119, N-[3-[(1-benzoyl-4-piperidinyl)oxy]phenyl]-4′-(trifluoromethoxy)[1,1′-biphenyl]-2-carboxamide], the IC50 turned out to be 661 nM. For `CCOC(=O)N1CCC(Oc2cccc(NC(=O)c3ccccc3-c3ccc(C(F)(F)F)cc3)c2)CC1` [Example 77, ethyl 4-[3-[[[4′-(trifluoromethyl)[1,1′-biphenyl]-2-yl]carbonyl]amino]phenoxy]-1-piperidinecarboxylate], the IC50 was found to be 82.5 nM.

For the origin of these results see patent US7723358B2, “Aroyl-O-piperidine derivatives for the treatment of diabetes-related problems” (Merck Patent GmbH, priority 2004, dated 2010).
